Measured values: article PMC11364095 (Science Advances, 2024)

Tested on: E. coli ATCC 35218
Assay: Resistance development assay
Type: cell-based
Conditions: after 16 passages, serial passaging in sub-MIC concentrations

Row | Compound | fold increase of MIC against E. coli ATCC 35218
1 | O=C(O)c1cn(C2CC2)c2cc(N3CCNCC3)c(F)cc2c1=O [ciprofloxacin] | 256 fold
2 | colistin | 128 fold
